Test results taken from US5336758A, “Peptides stimulating cytotoxic T cells immune to HIV RT” (The United States of America as represented by the …, priority 1990, dated 1994).

Tested on: L-cells
Type: cell-based, murine
Settings: spontaneous lysis and cell recovery in presence of peptide alone (data not shown)
Excerpt: Identification of the immunodominant epitope recognized by the line Pol a: To identify the epitope(s) contained in this area, we used 21 overlapping 15-amino acid peptides designated HP134 to HP154 covering residues 168 to 316. […] HP138 ([…]) corresponds to residues 205-219 of the HTLV/IIIB strain sequence (32). […] The line Pol a was Class I MHC-restricted because it killed HP 138-pulsed, Class II MHC molecule-negative H-2^k L-cell fibroblasts, but not 3T3 fibroblasts (H-2^d) or EL4 thymoma cells (H-2^b).

CC[C@H](C)[C@H](NC(=O)[C@H](CCCCN)NC(=O)[C@H](CO)NC(=O)[C@@H](NC(=O)[C@H](CCCCN)NC(=O)CNC(=O)[C@H](CCC(=O)O)NC(=O)[C@H](CCCCN)NC(=O)[C@H](CCC(=O)O)NC(=O)[C@H](CCSC)NC(=O)[C@H](CCC(=O)O)NC(=O)[C@@H](NC(=O)[C@@H](N)CS)[C@@H](C)O)[C@@H](C)CC)C(=O)NCC(=O)N1CCC[C@H]1C(=O)O [HP138]
toxicity of the peptide by itself: not toxic by itself
